Assay results: patent US9890147B2 (BAYER PHARMA AKTIENGESELLSCHAFT, priority 2012, dated 2018)

Assays:
B16F10 cells = assay: Cell proliferation assay (alamarBlue), B16F10; assay type: cell-based; conditions: Mus musculus, B16-F10, 96 hours incubation, inhibition of cell proliferation
Experimental: (§1) In accordance with the invention, the capability of the substances to inhibit cell proliferation was determined Cell viability was determined using the alamarBlue® reagent (Invitrogen) in a Victor X3 Multilabel Reader (Perkin Elmer). The excitation wavelength was 530 nm and the emission wavelenth […].
The B16F10 cells (ATCC, CRL-6475) were sown at a concentration of 300-500 cells/well in 100 μl growth medium (DMEM with phenol red, 10% FCS) on 96-well microtitre plates.
(§2) After an overnight incubation at 37° C., the fluorescence values (CI values) were determined. The plates were then treated with various substance dilutions (1E-5 M, 3E-6 M, 1E-6M, 3E-7 M, 1E-7 M, 3E-8 M, 1E-8 M) and incubated at 37° C. for 72 (MV4-11-, LOX-IMVI cells), 96 (MOLM-13-, B16F10-, MDA-MB-431-, Caov-3 cells), 120 (MOLP-8-, KMS-12-PE cells) or 168 (LAPC-4 cells) hours. The fluorescence values (CO values) were then determined. For the data analysis, the CI values were subtracted from the CO values and the results were compared between cells treated with different dilutions of the substance or with buffer solution only. These were used to calculate the IC 50 values (substance concentration required for 50% inhibition of cell proliferation).

MOLM-13 cells = assay: Cell proliferation assay (alamarBlue), MOLM-13; assay type: cell-based; conditions: Homo sapiens, 96 hours incubation, inhibition of cell proliferation
Procedure, shortened: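 IC50 = concentration giving 50% growth inhibition relative to buffer-treated cells, after subtracting baseline fluorescence taken before dosing. Compound applied at 1E-5 to 1E-8 M for 96 h at 37 °C in RPMI1640 with 10% FCS; alamarBlue signal at 530/590 nm.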

BRD4 (BD1) = molecular target: T1, BRD4 (BD1) (Homo sapiens, UniProt O60885); assay: Binding assay BRD4/acetylated peptide H4 (TR-FRET protein-protein interaction assay)
T1 construct: with relatively long constructs also being possible, preferably amino acids 44-168; made in house; host or cells: E. coli
Procedure, shortened: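 Displacement of biotin-Ac-H4 peptide from His6-tagged BRD4(BD1), final usually 10 nM, read as Eu-streptavidin to anti-His-XL665 TR-FRET (665/620 nm). Compounds tested at 11 doses up to 20 μM in duplicate, pH 7.5 HEPES, 22 °C then 4 °C incubation; IC50 by 4-parameter regression.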

LAPC-4 cells = assay: Cell proliferation assay (alamarBlue), LAPC-4; assay type: cell-based; conditions: Homo sapiens, LAPC4; inhibition of cell proliferation, LAPC-4 (prostate cancer), 1 nM methyltrienolone, 168 hours
Experimental: as §1
The LAPC-4 cells (ATCC, PTA-1441TM) were sown at a concentration of 4000 cells/well in 100 μl growth medium (RPMI1640, 2 mM L-glutamine, 10% cFCS) on 96-well microtitre plates. A day later, the LAPC-4 cells were treated with 1 nM methyltrienolone and various substance dilutions.
as §2

LOX-IMVI cells = assay: Cell proliferation assay (alamarBlue), LOX-IMVI; assay type: cell-based; conditions: Homo sapiens, 72 hours incubation, inhibition of cell proliferation
Experimental: as §1
The LOX-IMVI cells (NCI-60) were sown at a concentration of 1000 cells/well in 100 μl growth medium (RPMI1640, 10% FCS) on 96-well microtitre plates.
as §2

KMS-12-PE cells = assay: Cell proliferation assay (alamarBlue), KMS-12-PE; assay type: cell-based; conditions: Homo sapiens, 120 hours incubation, inhibition of cell proliferation
Experimental: as §1
The KMS-12-PE cells (DSMZ, ACC 606) were sown at a concentration of 4000 cells/well in 100 μl growth medium (RPMI1640, 20% FCS) on 96-well microtitre plates.
as §2

Caov-3 cells = assay: Cell proliferation assay (alamarBlue), Caov-3; assay type: cell-based; conditions: Homo sapiens; inhibition of cell proliferation, Caov-3 (ovarian carcinoma), 96 hours
Experimental: as §1
(§3) The MDA-MB-231 cells (DSMZ, ACC 732) were sown at a concentration of 4000 cells/well in 100 μl growth medium (DMEM/Ham's F12 medium, 10% FCS) on 96-well microtitre plates. The Caov-3 cells (ATCC, HTB-75) were sown at a concentration of 2000 cells/well in 100 μl growth medium (MEM Earle's medium, 10% FCS) on 96-well microtitre plates.
as §2

MV4-11 cells = assay: Cell proliferation assay (alamarBlue), MV4-11; assay type: cell-based; conditions: Homo sapiens, 72 hours incubation, inhibition of cell proliferation
Experimental: as §1
The MV4-11 cells (ATCC, CRL 9591) were sown at a concentration of 5000 cells/well in 100 μl growth medium (RPMI1640, 10% FCS) on 96-well microtitre plates.
as §2

MOLP-8 cells = assay: Cell proliferation assay (alamarBlue), MOLP-8; assay type: cell-based; conditions: Homo sapiens, 120 hours incubation, inhibition of cell proliferation
Experimental: as §1
The MOLP-8 cells (DSMZ, ACC 569) were sown at a concentration of 4000 cells/well in 100 μl growth medium (RPMI1640, 20% FCS) on 96-well microtitre plates.
as §2

MDA-MB-231 cells = assay: Cell proliferation assay (alamarBlue), MDA-MB-231; assay type: cell-based; conditions: Homo sapiens; inhibition of cell proliferation, MDA-MB-231 (breast carcinoma), 96 hours
Experimental: as §1, §3, §2

IC50 (B16F10 cells) [nM] | IC50 (MOLM-13 cells) [nM] | IC50 (BRD4 (BD1)) [nM] | IC50 (MV4-11 cells) [nM] | SMILES | IC50 (LAPC-4 cells) [nM] | IC50 (LOX-IMVI cells) [nM] | IC50 (KMS-12-PE cells) [nM] | IC50 (Caov-3 cells) [nM] | IC50 (MOLP-8 cells) [nM] | IC50 (MDA-MB-231 cells) [nM]
160 | 280 | 70 |  | CNC(=O)N1N=C(c2ccc(N3CC(C)(O)C3)cc2)c2cc(OC)c(OC)cc2CC1C (racemic) [Example 185, (±)-1-[4-(3-hydroxy-3-methylazetidin-1-yl)phenyl]-7,8-dimethoxy-N,4-dimethyl-4,5-dihydro-3H-2,3-benzodiazepine-3-carboxamide] |  |  |  |  |  | 
40 | 50 | 20 |  | CNC(=O)N1N=C(c2ccc(N3CCN(C)CC3)cc2)c2cc(OC(F)(F)F)ccc2C[C@@H]1C [Example 250.2, (4S)-N,4-dimethyl-1-[4-(4-methyl-1-piperazinyl)phenyl]-8-(trifluoromethoxy)-4,5-dihydro-3H-2,3-benzodiazepine-3-carboxamide] |  |  |  |  |  | 
170 | 300 | 70 |  | CNC(=O)N1N=C(c2ccc(N3CC(F)(F)C3)cc2)c2cc(OC)c(OC)cc2CC1C (racemic) [Example 181, (±)-1-[4-(3,3-difluoroazetidin-1-yl)phenyl]-7,8-dimethoxy-N,4-dimethyl-4,5-dihydro-3H-2,3-benzodiazepine-3-carboxamide] |  |  |  |  |  | 
60 | 110 | 70 |  | CNC(=O)N1N=C(c2ccc(N3CCNCC3)cc2)c2cc(OC)c(OC)cc2C[C@@H]1C [Example 131.1, (4S)-7,8-dimethoxy-N,4-dimethyl-1-[4-(piperazin-1-yl)phenyl]-4,5-dihydro-3H-2,3-benzodiazepine-3-carboxamide] |  |  |  |  |  | 
240 | 330 | 130 |  | CNC(=O)N1N=C(c2ccc(N3CCN(C(C)C)CC3)cc2)c2cc(OC)c(OC)cc2CC1C (racemic) [Example 186, (±)-1-[4-(4-Isopropylpiperazin-1-yl)phenyl]-7,8-dimethoxy-N,4-dimethyl-4,5-dihydro-3H-2,3-benzodiazepine-3-carboxamide] |  |  |  |  |  | 
100 | 200 | 50 |  | CNC(=O)N1N=C(c2ccc(N3CCC(C)(O)CC3)cc2)c2cc(OC)c(OC)cc2CC1C (racemic) [Example 188, (±)-1-[4-(4-hydroxy-4-methylpiperidin-1-yl)phenyl]-7,8-dimethoxy-N,4-dimethyl-4,5-dihydro-3H-2,3-benzodiazepine-3-carboxamide] |  |  |  |  |  | 
170 | 330 | 80 |  | CNC(=O)N1N=C(c2ccc(N3CC(OC)C3)cc2)c2cc(OC)c(OC)cc2CC1C (racemic) [Example 187, (±)-7,8-dimethoxy-1-[4-(3-methoxyazetidin-1-yl)phenyl]-N,4-dimethyl-4,5-dihydro-3H-2,3-benzodiazepine-3-carboxamide] |  |  |  |  |  | 
 | 430 | 40 |  | CNC(=O)N1N=C(c2ccc(-n3nc(COC)cc3C)cc2)c2cc(OC)ccc2C[C@@H]1C [Example 26, (4S)-8-methoxy-1-{4-[3-(methoxymethyl)-5-methyl-1H-pyrazol-1-yl]phenyl}-N,4-dimethyl-4,5-dihydro-3H-2,3-benzodiazepine-3-carboxamide] | 130 |  |  |  |  | 
210 | 440 | 60 |  | CNC(=O)C1CCN(c2ccc(C3=NN(C(=O)NC)C(C)Cc4cc(OC)c(OC)cc43)cc2)CC1 (racemic) [Example 189, (±)-7,8-dimethoxy-N,4-dimethyl-1-{4-[4-(methylcarbamoyl)piperidin-1-yl]phenyl}-4,5-dihydro-3H-2,3-benzodiazepine-3-carboxamide] |  |  |  |  |  | 
130 | 300 | 60 |  | CNC(=O)N1N=C(c2ccc(N3CC(O)C3)cc2)c2cc(OC)c(OC)cc2CC1C (racemic) [Example 184, (±)-1-[4-(3-hydroxyazetidin-1-yl)phenyl]-7,8-dimethoxy-N,4-dimethyl-4,5-dihydro-3H-2,3-benzodiazepine-3-carboxamide] |  |  |  |  |  | 
 | 170 | 40 | 270 | CNC(=O)N1N=C(c2ccc(-c3ccnn3C)cc2)c2cc(OC)ccc2C[C@@H]1C [Example 19, (4S)-8-methoxy-N,4-dimethyl-1-[4-(1-methyl-1H-pyrazol-5-yl)phenyl]-4,5-dihydro-3H-2,3-benzodiazepine-3-carboxamide] | 110 | 650 | 270 | 410 | 270 | 
 | 270 | 90 |  | CNC(=O)N1N=C(c2ccc(-c3ccn[nH]3)cc2)c2cc(OC)ccc2C[C@@H]1C [Example 23, (4S)-8-methoxy-N,4-dimethyl-1-[4-(1H-pyrazol-5-yl)phenyl]-4,5-dihydro-3H-2,3-benzodiazepine-3-carboxamide] | 190 |  |  |  |  | 
100 | 210 | 40 |  | CNC(=O)C1CCN(c2ccc(C3=NN(C(=O)NC)[C@@H](C)Cc4cc(OC)c(OC)cc43)cc2)CC1 [Example 189.1, (4S)-7,8-dimethoxy-N,4-dimethyl-1-{4-[4-(methylcarbamoyl)piperidin-1-yl]phenyl}-4,5-dihydro-3H-2,3-benzodiazepine-3-carboxamide] |  |  |  |  | 80 | 
 | 40 | 10 | 30 | CNC(=O)N1N=C(c2ccc(-n3nc(-c4ccccn4)cc3C3CC3)cc2)c2cc(OC)ccc2C[C@@H]1C [Example 28, (4S)-1-{4-[5-cyclopropyl-3-(pyridin-2-yl)-1H-pyrazol-1-yl]phenyl}-8-methoxy-N,4-dimethyl-4,5-dihydro-3H-2,3-benzodiazepine-3-carboxamide] | 20 | 40 | 30 | 40 | 20 | 
 | 630 | 30 |  | CNC(=O)N1N=C(c2ccc(-n3nc(C)cc3COC)cc2)c2cc(OC)ccc2C[C@@H]1C [Example 27, (4S)-8-methoxy-1-{4-[5-(methoxymethyl)-3-methyl-1H-pyrazol-1-yl]phenyl}-N,4-dimethyl-4,5-dihydro-3H-2,3-benzodiazepine-3-carboxamide] | 180 |  |  |  |  | 
80 | 150 | 40 |  | CNC(=O)N1N=C(c2ccc(N3CCN(S(C)(=O)=O)CC3)cc2)c2cc(OC)c(OC)cc2C[C@@H]1C [Example 135.1, (4S)-7,8-dimethoxy-N,4-dimethyl-1-{4-[4-(methylsulphonyl)piperazin-1-yl]phenyl}-4,5-dihydro-3H-2,3-benzodiazepine-3-carboxamide] |  |  |  |  |  | 
 | 7740 | 2510 |  | CNC(=O)N1N=C(c2ccc(Cl)cc2)c2cc(N3CCOCC3)ccc2C[C@H]1C [Example 11.2, (4R)-1-(4-Chlorophenyl)-N,4-dimethyl-8-(morpholin-4-yl)-4,5-dihydro-3H-2,3-benzodiazepine-3-carboxamide] |  |  |  |  |  | 10000

SMILES | IC50 (B16F10 cells) [nM] | IC50 (MOLM-13 cells) [nM] | IC50 (BRD4 (BD1)) [nM] | IC50 (MV4-11 cells) [nM] | IC50 (LAPC-4 cells) [nM] | IC50 (LOX-IMVI cells) [nM] | IC50 (KMS-12-PE cells) [nM] | IC50 (Caov-3 cells) [nM] | IC50 (MOLP-8 cells) [nM] | IC50 (MDA-MB-231 cells) [nM]
CNC(=O)N1N=C(c2ccc(Cl)cc2)c2cc(OC(F)(F)F)c(Cl)cc2CC1C (racemic) [Example 15] |  | 3450 | 870 |  |  |  |  |  |  | 6230
